Reference: patent US11337424B2, “Fungicidal compounds and mixtures for fungal control in cereals” (Corteva Agriscience LLC, priority 2016, dated 2022)

What was measured:
Format in all cases: in vivo
[1] = tested on: Puccinia recondita (PUCCRT); test: Field assessment of brown rust of wheat (PUCCRT), 2 field trials, relative AUDPC; conditions: % control based on AUDPC, average of 2 trials
Excerpt: (§1) Treatments consisted of the compound of Formula I and fenpicoxamid either using individually or as a two-way mixture with the compound of Formula I. The compound of Formula I was applied with Agnique BP-420 (50% w/w at 0.3% v/v) at 75 and 150 g ai/ha and fenpicoxamid was applied with Agnique BP-420 (50% w/w at 0.3% v/v) at 75 and 100 g ai/ha. Commercial standards used in the studies were Fluxapyroxad (Imtrex), applied at 100 g ai/ha, and Metconazole+Fluxapyroxad (Librax), applied at 161 g ai/ha.
Field Assessment of Puccinia recondita (PUCCRT) in Wheat:
Fungicidal treatment containing the compound of Formula I and fenpicoxamid, either individually or as a two mixture, were assessed against brown rust of wheat (PUCCRT) in two separate field trials. In the first trial, fungicidal treatments were applied at B37-39 (protectant, approximately 0% infection at application) growth stage of wheat (TRZAW, MV Vanek variety) under natural infection of brown rust. The treatment was part of an experimental trial designed as a randomized complete block with four replications and a plot of approximately 2×3 m. Fungicidal treatments were applied at a water volume of 200 L/ha, using a backpack plot sprayer with a TEEJET QJ90-2XTT110 015 Nozzle.
In the second trial, fungicidal treatments containing the compound of Formula I and fenpicoxamid, either individually or as a two way mixture, were applied at B33 (curative, approximately 6.6% infection at application) growth stage of wheat (TRZAW, Miradoux variety) under natural infection of brown rust. The treatments were part of an experimental trial designed as a randomized complete block with four replications and a plot of approximately 2×3 m. Fungicidal treatments were applied at a water volume of 200 L/ha, using a backpack plot sprayer with a HARDI MD110-02 Nozzle.
(§2) Disease severity (percentage of visual diseased foliage on whole plot or leaves) in both field trials was assessed at 5 weeks after application and was recorded following EPPO PP1/26 guideline prescriptions. Area under the disease progress curve (AUDPC) was calculated for each plot in both trials using the sets of recorded severity data. Relative AUDPC (% control based on AUDPC) was calculated as percent of the nontreated control. Final results for the control of brown rust of wheat by the compound of Formula I, fenpicoxamid, and mixtures are reported as an average of the relative AUDPC calculated over both field trials. Statistical analysis was done according to ANOVA and Tukey's test (p=0.10).

[2] = tested on: Puccinia striiformis (PUCCST); test: Field assessment of yellow rust of wheat (PUCCST), 2 field trials, relative AUDPC; conditions: % control based on AUDPC, average of 2 trials
Excerpt: as §1
Field Assessment of Puccinia striiformis (PUCCST) in Wheat:
Fungicidal treatments containing the compound of Formula I and fenpicoxamid, either individually or as a two way mixture, were assessed against yellow rust of wheat (PUCCST) in two separate field trials. In the first trial, fungicidal treatments were applied twice at B31-32 (early curative, 4% infection at application on L3) and B39 (16.3% infection at application on L3) growth stages of winter wheat (TRZAW, Fairplay variety) under naturally occurring infection with PUCCST. The treatments were part of an experimental trial designed as a randomized complete block with four replications and a plot of approximately 1×6 m. Treatments were applied at water volume of 200 L/ha, using a backpack plot sprayer (BKPCKENG, F110-015 Hardi (3) Flat fan nozzle) and pressurized at 200 kPa.
In the second trial, fungicidal treatments containing the compound of Formula I and fenpicoxamid, either individually or as a two way mixture, were applied twice at B32 (protectant, 0% infection on L3 at application) and B37 (early curative, 20% infection on L3 at application) growth stages of wheat (TRZAW, Torch variety) under naturally occurring infection with PUCCST. The treatment was part of an experimental trial designed as a randomized complete block with four replications and a plot of approximately 2×4 m. Treatments were applied at water volume of 200 L/ha, using a backpack precision plot sprayer (BKCKAIR, F110-03 Hypro (4) Flat fan nozzle) and pressurized at 210 kPa.
as §2, with “4-7” for “5”, “yellow” for “brown”

[3] = tested on: Zymoseptoria tritici (SEPTTR); test: Field assessment of leaf blotch of wheat (SEPTTR), 3 field trials, relative AUDPC; conditions: % control based on AUDPC, average of 3 trials
Excerpt: as §1
Field Assessment of Zymoseptoria Tritici (SEPTTR) in Wheat:
Fungicidal treatments containing the compound of Formula I and fenpicoxamid, either individually or as a two way mixture, were assessed against leaf spot of wheat (SEPTTR) in three separate field trials. In the first trial, fungicidal treatments were applied at B37 (curative, 1.8% infection at application on L4) growth stage of winter wheat (TRZAW, Sy moisson variety) under naturally occurring infection with SEPTTR. The treatments were part of an experimental trial designed as a randomized complete block with four replications and a plot of approximately 2×4 m. Treatments were applied at water volume of 200 L/ha, using a backpack plot sprayer (BKPCKAIR, FLAT FAN nozzle) and pressurized at 250 kPa.
In the second trial, fungicidal treatments were applied twice at B32 (curative, 15% infection at application on L5) and B39 (16% infection at application on L4) growth stages of winter wheat (TRZAW, Riband variety) under naturally occurring infection with SEPTTR. The treatments were part of an experimental trial designed as a randomized complete block with four replications and a plot of approximately 1.5×2 m. Treatments were applied at water volume of 200 L/ha, using a backpack plot sprayer (BKPCKAIR, Flat fan nozzle) and pressurized at 180 kPa.
In the final trial, fungicidal treatments were applied twice at B32 (protective, 15% infection at application on L6) and B37 (12% infection at application on L5) growth stages of winter wheat (TRZAW, Smaragd variety) under naturally occurring infection with SEPTTR. […]
as §2, with “at 7-9” for “at 5”, “of leaf spot” for “of brown rust”, “over all three” for “over both”, “trials. […]” for “trials. Statistical analysis was done according to ANOVA and Tukey's test (p=0.10).”

Structure (SMILES) | PUCCRT % Control ([1]; 75 g ai/ha) [%] | PUCCRT % Control ([1]; 100 g ai/ha) [%] | PUCCST % Control ([2]; 75 g ai/ha) [%] | PUCCST % Control ([2]; 100 g ai/ha) [%] | SEPTTR % Control ([3]; 50 g ai/ha) [%] | SEPTTR % Control ([3]; 75 g ai/ha) [%] | PUCCRT % Control ([1]; 150 g ai/ha) [%] | PUCCST % Control ([2]; 150 g ai/ha) [%] | SEPTTR % Control ([3]; 150 g ai/ha) [%]
COc1ccnc(C(=O)N[C@H]2COC(=O)[C@H](Cc3ccccc3)[C@@H](OC(=O)C(C)C)[C@H](C)OC2=O)c1OCOC(=O)C(C)C [Fenpicoxamid, (3S,6S,7R,8R)-8-benzyl-3-(3-((isobutyryloxy)methoxy)-4-methoxypicolinamido)-6-methyl-4,9-dioxo-1,5-dioxonan-7-yl isobutyrate] | 63.5 | 74.5 | 56.5 | 60.5 | 48.7 | 57.7 | – | – | –
N#Cc1ccc(Oc2ccc(C(F)(F)C(O)(Cn3nc[nH]c3=S)c3ccc(F)cc3F)nc2)cc1 (stereo not drawn) [Compound I, 4-((6-(2-(2,4-difluorophenyl)-1,1-difluoro-2-hydroxy-3-(5-thioxo-4,5-dihydro-1H-1,2,4-triazol-1-yl)propyl)pyridin-3-yl)oxy)benzonitrile] | 79.7 | – | 82.7 | – | – | 48.2 | 89.0 | 85.5 | 65.8
